Source: publication PMC8424217 (The Journal of Biological Chemistry, 2021)
“Also recorded” adds a separate entry of the source. Peptide text beside a SMILES is read from it. * marks the point of attachment. Palmitoyl = CCCCCCCCCCCCCCCC(=O)*

Experiments:
[1] = biological target: T1, rat thoracic aorta rings (Rattus norvegicus, UniProt P49684); assay: Rat aortic ring contraction (agonist); conditions: for contraction at 10 μM: n = 5; for contraction pEC50: n = 22 (hUII, URP), n = 5 (pepducins)
T1 sequence (P49684 1-386): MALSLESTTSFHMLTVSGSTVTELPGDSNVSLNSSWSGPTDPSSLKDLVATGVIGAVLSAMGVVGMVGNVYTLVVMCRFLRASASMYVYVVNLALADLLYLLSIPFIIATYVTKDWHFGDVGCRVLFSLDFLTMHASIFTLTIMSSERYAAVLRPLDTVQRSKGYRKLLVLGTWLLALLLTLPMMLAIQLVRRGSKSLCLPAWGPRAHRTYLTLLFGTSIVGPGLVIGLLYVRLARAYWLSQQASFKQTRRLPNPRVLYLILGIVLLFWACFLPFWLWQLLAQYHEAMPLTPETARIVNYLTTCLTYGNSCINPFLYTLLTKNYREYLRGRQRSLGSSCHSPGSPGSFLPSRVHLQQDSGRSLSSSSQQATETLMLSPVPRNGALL
Experimental: Each replicate (n) was conducted on tissue obtained from at least three different animals. Data represent mean ± SEM.
Adult male Sprague-Dawley rats (Charles-River) weighing 250–300 g were housed in cages under controlled illumination (12:12 h light–dark cycle), humidity, and temperature (21–23 °C) and had free access to tap water and rat chow. All experimental procedures were performed in accordance with regulations and ethical guidelines from the Canadian Council for the Care of Laboratory Animals and received approvals of the institutional animal care and use committee of the Institut National de la Recherche Scientifique—Centre Armand-Frappier Santé Biotechnologie. As previously described ([17], [18]), the thoracic aorta was cleared of surrounding tissue and then excised from the aortic arch to the diaphragm. Conjunctive tissues were next removed from the thoracic aorta and the vessels were divided into five rings of 4 mm. The endothelium of each aortic ring was removed by gently rubbing the vessel intimal surface. Aortic rings were then placed in a 5 ml organ bath filled with oxygenated normal Krebs–Henseleit buffer. Eighty microliters of a 2.5 M potassium chloride solution (40 mM final concentration) was used to evaluate maximal contractile responses of each vessel. […] Cumulative concentration–response curves to synthetic peptides were obtained by increasing the concentration of each peptide in the remaining organ chambers (10^−11–10^−5 M).

[2] = biological target: T2, hUT (Homo sapiens, UniProt Q9UKP6); assay: ERK1/2 phosphorylation, BRET-based biosensor, HEK 293-hUT cells; type: cell-based; parameters: expressed in transfected cells; conditions: concentration-response
T2 sequence (Q9UKP6 1-389): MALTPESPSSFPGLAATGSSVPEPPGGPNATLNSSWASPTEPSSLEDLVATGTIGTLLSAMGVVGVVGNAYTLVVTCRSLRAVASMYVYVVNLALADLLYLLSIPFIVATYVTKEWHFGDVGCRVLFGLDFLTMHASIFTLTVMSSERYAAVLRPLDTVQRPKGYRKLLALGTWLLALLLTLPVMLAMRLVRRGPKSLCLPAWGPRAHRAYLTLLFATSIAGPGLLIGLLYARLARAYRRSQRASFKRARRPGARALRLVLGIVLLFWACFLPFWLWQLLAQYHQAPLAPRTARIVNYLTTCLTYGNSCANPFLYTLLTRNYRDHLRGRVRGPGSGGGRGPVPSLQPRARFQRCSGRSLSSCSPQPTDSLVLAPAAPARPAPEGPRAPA
Experimental: HEK 293-hUT cells were grown in DMEM culture media supplemented with 10% foetal bovine serum, HEPES, sodium pyruvate, and G418 (200 μg mL^−1). Passages were performed when cells reached 80% of confluency. Cells were initially plated in 96-well plates at a density of 10,000 cells/well. The following day, the medium is replaced with DMEM culture media supplemented with 2.5% foetal bovine serum (FBS), and 12 h later, cells were transiently transfected with 25 ng/well of a Gq-polycistronic, 25 ng/well of a G12-polycistronic BRET sensor, 25 ng/well of a G13-polycistronic BRET sensor, 2.5 ng/well pIRESB RLucII-ERK-NLS-GFP BRET sensor, 2.5 ng β-arrestin 1-polycistronic BRET sensor, or 2.5 ng β-arrestin 2-polycistronic BRET sensor using Lipofectamine2000 at a ratio of 3:1 (Lipofectamine/plasmid DNA) in serum-free Opti-MEM ([44], [81]). […] Then, to evaluate Gq and G12 activation, 10 μl of a 1/20 dilution (diluted before use) of coelenterazine 400A (stock at 1 mM in ethanol) in Kreb's buffer and 10 μl of the 10× appropriate concentration of peptide were added, and the luminescence was evaluated with an Infinite M1000 PRO. […] Readings were performed after 5 min using an Infinite M1000 PRO. […] BRET ratio was determined by calculating the ratio of the light emitted by GFP10 over the light emitted by the RlucII. […]

[3] = biological target: T2, hUT; assay: β-arrestin 2 conformational change, BRET biosensor, HEK 293-hUT cells; type: cell-based; parameters: expressed in transfected cells; conditions: 15 min at RT
Experimental: Figure 6 Signaling signature of hUT-pepducins following hUT receptor activation. […] Each curve represents mean ± SEM of at least three independent concentration-response experiments performed in triplicate.
HEK 293-hUT cells were grown in DMEM culture media supplemented with 10% foetal bovine serum, HEPES, sodium pyruvate, and G418 (200 μg mL^−1). Passages were performed when cells reached 80% of confluency. Cells were initially plated in 96-well plates at a density of 10,000 cells/well. The following day, the medium is replaced with DMEM culture media supplemented with 2.5% foetal bovine serum (FBS), and 12 h later, cells were transiently transfected with 25 ng/well of a Gq-polycistronic, 25 ng/well of a G12-polycistronic BRET sensor, 25 ng/well of a G13-polycistronic BRET sensor, 2.5 ng/well pIRESB RLucII-ERK-NLS-GFP BRET sensor, 2.5 ng β-arrestin 1-polycistronic BRET sensor, or 2.5 ng β-arrestin 2-polycistronic BRET sensor using Lipofectamine2000 at a ratio of 3:1 (Lipofectamine/plasmid DNA) in serum-free Opti-MEM ([44], [81]). Sixteen hours posttransfection, medium was replaced with DMEM supplemented with 10% FBS, HEPES, sodium pyruvate and G418 (200 μg mL^−1) and cell growth was resumed for another 16 h. Cells were washed with 150 μl PBS solution supplemented with 0.1% of glucose and then incubated with 80 μl of this solution for 2 h. Then, to evaluate Gq and G12 activation, 10 μl of a 1/20 dilution (diluted before use) of coelenterazine 400A (stock at 1 mM in ethanol) in Kreb's buffer and 10 μl of the 10× appropriate concentration of peptide were added, and the luminescence was evaluated with an Infinite M1000 PRO. […] Readings were performed after 5 min using an Infinite M1000 PRO. Filters were set at 410 nm and 515 nm for detecting the Renilla luciferase II (RlucII, donor) and green fluorescent protein 10 (GFP10, acceptor) light emission, respectively. BRET ratio was determined by calculating the ratio of the light emitted by GFP10 over the light emitted by the RlucII.

[4] = percentage of contraction induced by 40 mM KCl

**Q.** What does the source list for `CCCCCCCCCCCCCCCC(=O)N[C@@H](Cc1c[nH]c2ccccc12)C(=O)N[C@@H](CC(C)C)C(=O)N[C@@H](CO)C(=O)N[C@@H](CCC(N)=O)C(=O)N[C@@H](CCCNC(=N)N)C(=O)N[C@@H](C)C(=O)N[C@@H](CO)C(=O)N[C@@H](Cc1ccccc1)C(=O)N[C@@H](CCCCN)C(=O)N[C@@H](CCCNC(=N)N)C(=O)N[C@@H](C)C(=O)N[C@@H](CCCNC(=N)N)C(=O)N[C@@H](CCCNC(=N)N)C(N)=O` [[Trp^1, Leu^2]hUT-Pep3] (Palmitoyl-WLSQRASFKRARR-NH2)?
**A.** contraction at 10 μM [1, 4]: 16% @ 10 μM; contraction pEC50 ([1]; mean ± SEM): <5; ERK1/2 phosphorylation (BRET) versus hUII [2]: lower potency and efficacy than hUII; EC50 ([3]; mean ± SEM, n = 3–5, read-out: β-arrestin 2 pEC50 (converted)): 18.2 nM; Emax ([3]; percentage of the activation induced by hUII (10^−6 M), mean ± SEM, n = 3–5): 19 ± 3%

**Q.** For `CC(C)[C@H](NC(=O)[C@@H]1CSSC[C@H](NC(=O)[C@H](CC(=O)O)NC(=O)[C@@H]2CCCN2C(=O)[C@@H](NC(=O)[C@@H](N)CCC(=O)O)[C@@H](C)O)C(=O)N[C@@H](Cc2ccccc2)C(=O)N[C@@H](Cc2c[nH]c3ccccc23)C(=O)N[C@@H](CCCCN)C(=O)N[C@@H](Cc2ccc(O)cc2)C(=O)N1)C(=O)O` [hUII, urotensin II, reference compound], which “contraction pEC50” value ([1]; mean ± SEM) is on record?
**A.** 8.64 ± 0.09

**Q.** What about the Emax ([1]; percentage of contraction induced by 40 mM KCl, mean ± SEM, n = 22) of the same compound?
**A.** 102 ± 3%

**Q.** With `CCCCCCCCCCCCCCCC(=O)N[C@@H](CCCNC(=N)N)C(=O)N1CCC[C@H]1C(=O)N[C@@H](CC(C)C)C(=O)N[C@@H](CC(=O)O)C(=O)N[C@H](C(=O)N[C@H](C(=O)N[C@@H](CCC(N)=O)C(=O)N[C@@H](CCCNC(=N)N)C(=O)N1CCC[C@H]1C(=O)N[C@@H](CCCCN)C(=O)NCC(=O)N[C@@H](Cc1ccc(O)cc1)C(N)=O)C(C)C)[C@@H](C)O` [hUT-Pep2] (Palmitoyl-RPLDTVQRPKGY-NH2) as the compound, how does the “contraction at 10 μM” value [1, 4] read?
**A.** 7% @ 10 μM

**Q.** What about the “contraction pEC50” value ([1]; mean ± SEM) of the same compound?
**A.** <5

**Q.** What about the “ERK1/2 phosphorylation (BRET) versus hUII” value [2] of the same compound?
**A.** lower potency and efficacy than hUII; also recorded: partial agonist

**Q.** What about the Emax at 1 µM ([3]; at 10^−6 M, percentage of the activation induced by hUII (10^−6 M), read-out: β-arrestin 2, maximum efficacy at 10^−6 M) of the same compound?
**A.** ~15%
